Test: Simulation of bioavailability: availability of test compound in standardised enteric juice
Conditions: enteric juice pH 8.3, 37 degrees Celsius; mean over the entire experiment (60-240 minutes); mean of two experiments
Experimental: 5 g of test compound either pure or in ethanolic solution was mixed with 5-20 g of the below mentioned carrier. After vigorously mixing ethanol was removed by evaporation.
The following carrier was used: diacetylated monoglyceride with the following fatty acid composition based on the monoglyceride: about 50% lauric acid (12:0), 20% myristic acid (14:0), 15% caprylic/capric acid (8:0 and 10:0) and 10% palmitic acid (16:0).
The pH was adjusted to 8.3.
0.500 g complex and 50 ml of standardised enteric juice was mixed in a 100 ml vessel and placed on a shaking water bath at 37 degrees Celsius under moderate agitation. As controls pure test compound corresponding to 0.500 g complex was used instead of 0.500 g complex.
Samples of 1.000 ml were collected after 60, 120, 180 and 240 minutes. The samples were extracted with 1.5 ml of 1-butanol. The concentration of test compound in the enteric juice was determined by an appropriate method (spectrophotometrically or by HPLC).

availability in the complex form compared to pure test compound: 2,2 times
SMILES: COC1=C(OC)C(=O)C(C/C=C(\C)CC/C=C(\C)CC/C=C(\C)CC/C=C(\C)CC/C=C(\C)CC/C=C(\C)CC/C=C(\C)CC/C=C(\C)CC/C=C(\C)CCC=C(C)C)=C(C)C1=O [Q10, coenzyme Q10]

— patent US6087391A, “Method of rendering organic compounds soluble in fatty systems, novel chemical complexes of such compounds and various applications of the complexes” (priority 1994, dated 2000)
